Measured values reported in article PMC5407767, “Characterization and expression analysis of Galnts in developing Strongylocentrotus purpuratus embryos” (PLoS ONE, 2017).

Target: SpGalNAc-T2 (Strongylocentrotus purpuratus, UniProt A0A7M7T5A5)
Experiment: GalNAc transfer to peptide acceptors, radioactivity (dpm/3hr)
Type: biochemical
Conditions: acceptor peptides EA2, MUC5AC, MUC5AC-3, MUC5AC-13, MUC5AC-3/-13, SpDelta, SpNotch, 37°C, donor not given

Chain of SpGalNAc-T2 (A0A7M7T5A5 37-564): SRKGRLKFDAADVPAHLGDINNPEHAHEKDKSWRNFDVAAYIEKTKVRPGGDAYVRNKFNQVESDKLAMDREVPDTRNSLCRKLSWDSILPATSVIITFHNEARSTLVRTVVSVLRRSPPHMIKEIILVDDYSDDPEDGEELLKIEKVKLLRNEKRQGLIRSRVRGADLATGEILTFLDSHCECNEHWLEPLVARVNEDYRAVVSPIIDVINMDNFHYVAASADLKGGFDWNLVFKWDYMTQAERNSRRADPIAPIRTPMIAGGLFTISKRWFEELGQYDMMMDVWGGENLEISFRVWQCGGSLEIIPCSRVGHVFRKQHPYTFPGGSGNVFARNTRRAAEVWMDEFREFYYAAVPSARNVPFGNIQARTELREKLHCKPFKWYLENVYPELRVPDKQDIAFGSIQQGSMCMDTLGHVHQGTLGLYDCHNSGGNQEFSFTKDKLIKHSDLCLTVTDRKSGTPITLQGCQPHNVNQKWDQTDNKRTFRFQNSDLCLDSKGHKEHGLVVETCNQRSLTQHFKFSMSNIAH

Question: Which “GalNAc transfer to peptide acceptors, radioactivity (dpm/3hr)” value does the source give for `CC(=O)N[C@H]1[C@@H](OP(=O)(O)OP(=O)(O)OC[C@H]2O[C@@H](n3ccc(=O)[nH]c3=O)[C@H](O)[C@@H]2O)O[C@H](CO)[C@H](O)[C@@H]1O` [UDP-GalNAc] here?
Answer: The value was “GalNAc-T activity was observed for SpGalNAc-T1, SpGalNAc-T2, SpGalNAc-T7, SpGalNAc-T7-1, and SpGalNAc-T7-2”.
